Data on seven compounds can be found in US7834013B2, “Aminophenylcyclopropyl carboxylic acids and derivatives as agonists to GPR40” (GlaxoSmithKline LLC, priority 2003, dated 2010).

Structures can show the parent of a compound that is named as a salt.

The target of this test is T1, GPR40 (Homo sapiens, UniProt O14842).
T1 construct: expressed in transfected cells
T1 sequence (O14842 whole entry): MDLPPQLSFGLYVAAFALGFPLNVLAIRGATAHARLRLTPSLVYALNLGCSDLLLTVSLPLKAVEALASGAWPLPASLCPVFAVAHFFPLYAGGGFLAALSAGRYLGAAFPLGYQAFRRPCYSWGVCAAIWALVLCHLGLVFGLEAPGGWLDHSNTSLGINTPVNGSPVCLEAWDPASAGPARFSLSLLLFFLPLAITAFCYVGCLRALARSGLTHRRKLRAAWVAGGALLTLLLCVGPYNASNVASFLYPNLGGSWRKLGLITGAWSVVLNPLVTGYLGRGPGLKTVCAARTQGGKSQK
Kind of test: GPR40 SAR Primary Assay (Elk-1/Gal4-luc+ reporter, luciferase activity). It is filed as cell-based. Particulars: stable GPR40 Elk-1/Gal4-luc+ CHO cell line, 5 hours incubation. As for the experimental part:
An existing stable GPR40 Elk-1/Gal4-luc^+ CHO cell line generated by electroporation and functional cloning was used. Cells were maintained in a humidified incubator at 37° C./5% CO2 in complete media containing DMEM/F12 (Gibco, #11039-021), 5% FBS (Gibco, #16140-071) and 1% Glutamine (Gibco, #25030-081). Cell maintenance passages were made at 1:40 dilution every 3-4 days. Forty eight hours prior to assay, 15e6 cells were added to 200 ml of complete media then seeded into a 1200 cm^2-cell factory and returned to a humidified incubator at 37° C./5% CO2. 20 hours prior to assay, the growth media was removed and replaced with 200 ml of serum-free DMEM/F12 to quiesce background activity. At the time of assay, cells were harvested using non-enzymatic cell dissociation solution (Sigma, #C-5914), washed and counted. The 20 hour starve media was collected and used as condition media for cell assay plating. Cells were plated at a concentration of 10,000 cells/well in a total well volume of […] in black 96-well clear bottom polystyrene plates (CoStar, #3904). Test compounds were prepared as serial dilutions in 100% DMSO, then 1 ul was delivered to each well resulting in a final concentration of 1% DMSO. The plates were then returned to a humidified incubator at 37° C./5% CO2 for 5 hours. Following the incubation, the medium was replaced with 50 ul of a 1:1 mixture of SteadyGlo™ (Promega, #E2550) and dPBS containing 1 mM CaCl2 and 1 mM MgCl2. Plates were then sealed and subjected to dark adaptation at room temperature for 10 minutes. Luciferase activity was measured on a Packard TopCount™ microplate scintillation counter using 2 seconds per well count time.
Data analysis was performed using standard methods.
The Normalization Equation used was 100*(Unknown compound response−Background response)/(Agonist Max response−Background response).
The Curve Fit Function used was y=((Vmax*x^n)/(K^n+x^n))+Y2.
A percent max response and pEC50 were recorded for each compound. Although specific pEC50 values are given, these values should be considered exemplary. Those skilled in the art will appreciate the variability in performing and recording the biological activity assays that are herein described. The compounds of the present invention provide a pEC50 of at least 5.0.
For the compound `COc1ccc(CNC(=O)[C@@H]2C[C@H]2c2ccc(NCc3cccc(Oc4ccccc4)c3)cc2)cc1` (racemic) [Example 48, Racemic-(trans)-N-(4-methoxybenzyl)-2-{4-[(3-phenoxybenzyl)amino]phenyl}cyclopropanecarboxamide], the midpoint of the response, the EC50, lay at 0.0316 µM.
In the case of `O=C(O)[C@H]1C[C@@H]1c1ccc(NCc2cccc(Sc3ccccc3)c2)cc1` (racemic) [Example 23, Racemic-(trans)-2-[4-({[3-(phenylthio)phenyl]methyl}amino)phenyl]cyclopropanecarboxylic Acid Trifluoroacetate] it was 0.0316 µM.
With `Cc1nc(-c2ccc(C(F)(F)F)cc2)sc1CNc1ccc([C@@H]2C[C@H]2C(=O)NCc2ccncc2)cc1` (racemic) [Example 37, Racemic-(trans)-2-{4-[({4-methyl-2-[4-(trifluoromethyl)phenyl]-1,3-thiazol-5-yl}methyl)amino]phenyl}-N-(4-pyridinylmethyl)cyclopropanecarboxamide], it took 0.01 µM to reach a half-maximal effect (EC50).
With `Cc1nc(-c2ccc(C(F)(F)F)cc2)sc1CNc1ccc([C@@H]2C[C@H]2C(=O)N(C)C)cc1` (racemic) [Example 46, Racemic-(trans)-N,N-dimethyl-2-{4-[({4-methyl-2-[4-(trifluoromethyl)phenyl]-1,3-thiazol-5-yl}methyl)amino]phenyl}cyclopropanecarboxamide], the EC50 (as a rule, the concentration needed to bring the measured effect to its halfway point) was 0.0631 µM.
As for `O=C(O)[C@@H]1C[C@H]1c1ccc(NCc2cc(-c3ccc(C(F)(F)F)cc3)co2)cc1` (racemic) [Example 20, Racemic-(trans)-2-{4-[({4-[4-(trifluoromethyl)phenyl]-2-furanyl}methyl)amino]phenyl}cyclopropanecarboxylic Acid], the figure is 0.158 µM; as for `O=C(O)[C@@H]1C[C@H]1c1ccc(NCc2ccc(OCc3ccccc3)cc2)cc1` (racemic) [Example 16, Racemic-(trans)-2-{4-[({4-[(phenylmethyl)oxy]phenyl}methyl)amino]phenyl}cyclopropanecarboxylic Acid trifluoroacetate], 0.0631 µM; as for `O=C(O)C1CC1c1ccc(NCc2cccc(Oc3cc(Cl)cc(Cl)c3)c2)cc1` (racemic) [Example 8, Racemic-(trans)-2-{4-[({3-[(3,5-dichlorophenyl)oxy]phenyl}methyl)ammonium]phenyl}-cyclopropanecarboxylic Acid Trifluoroacetate], 0.00631 µM.
